Experimental data taken from a melting point compilation (Tetko et al.; mined from patent text by program, amines drawn as free bases though some values may be those of a salt).

| melting point | Structure (SMILES) |
| --- | --- |
| 131 to 133 °C | N#CC(C#N)=C1N(CCCN2CCCCC2)CCN1C1CCN(C(=O)C2CC2)CC1 |
| 128 °C | Cc1cccc(C)c1N1Cc2cnc(Nc3ccccc3)nc2N(c2cccc(CCN)c2)C1=O |
| > 250 °C | COc1cc(C#N)ccc1-c1nc2cc(Cl)c(Cl)cc2[nH]1 |
| 241 to 242 °C | O=c1cc(CO)nc2ccn(-c3ccccc3)n12 |
| 154 to 156 °C | COc1cc(OC)cc(C2CCCCC2=CC(=O)O)c1 (centres undefined) |
| 243 to 246 °C | OC1CCN(c2ncc3ncnc(Nc4ccc(F)c(Cl)c4)c3n2)CC1 |
| 262 to 264 °C | CC1C(C/C=C/c2ccccc2)C(=O)N(Cc2ccccc2)c2ccccc2N1C(=O)CN1C(=O)c2ccccc2C1=O (centres undefined) |
| 157 °C | CC(=O)OC1CSC(Oc2cccc3conc23)C(OC(C)=O)C1OC(C)=O (centres undefined) |
| 131 to 135 °C | Cc1c(C)c2ccc(OCc3ccccc3)cc2oc1=O |
| 214 to 216 °C | CC(=O)Nn1c(C)nc2cc(C(F)(F)F)ccc21 |
| 53 to 54 °C | CCCCCCCCCCCCC(OC)C1=CC(=O)OC1O (centres undefined) |
| 235 to 238 °C | Cc1ccc(NC(=O)c2ccc(CN3CCNC(C(N)=O)C3)c(C(F)(F)F)c2)cc1Nc1nccc(-c2cncnc2)n1 (centres undefined) |
| 58 to 60 °C | COC(=O)c1scc(Br)c1N |
| 95 °C | O=c1ncc(Cl)cn1COCc1cccc(C(F)(F)F)c1 |
| 115 to 117 °C | N=C(Nc1ccc2[nH]cc(C3CCN(C(=N)c4cccs4)CC3)c2c1)c1cccs1 |
| 64.5 to 66 °C | O=C(Cl)C=Cc1c(Cl)cccc1Cl |
| 200 to 201 °C | Cc1oc(-c2ccc(C(F)(F)F)cc2)cc1C(=O)Nc1cccc(CCC(=O)O)c1 |
| 91 to 92 °C | COC(=O)C(C)Oc1ccc(Oc2ncc(Cl)cc2[N+](=O)[O-])cc1 (centres undefined) |

| melting point | Structure (SMILES) |
| --- | --- |
| 106 to 108 °C | Cn1nc(Oc2ccc(Cl)c(O)c2)c(Cl)c1C(F)(F)F |
| 65.1 °C | C#CCOc1cc(-c2ccccc2)ncn1 |
| 114 to 115 °C | CCSc1cnc(Oc2ccc(Cl)c(Cl)c2)c(C#N)c1 |
| 98 to 100 °C | COC(=O)C1=C(C)NC(c2ncsc2Cl)=NC1c1ccc(F)cc1Cl (centres undefined) |
| 245 to 247 °C | NC(=O)c1cc(-c2ccnc(Nc3cccc(Cl)c3)n2)ccn1 |
| 97 to 99 °C | CCN=C(N)N(CC)N=C(C=Cc1ccc(OC(F)F)cc1)C=Cc1ccc(OC(F)F)cc1 |
| 155 to 157 °C | Cc1c(-c2ccncc2)sc(-c2ccncc2)c1C(C)O (centres undefined) |
| 149 to 150 °C | CC1(C)CC(=C(c2ccc(O)cc2)c2ccc(S(C)(=O)=O)cc2)CC(C)(C)C1 |
| 187 to 191 °C | COc1cc(C)nc(NC(=O)NS(=O)(=O)c2ccccc2C2CC2(Cl)Cl)n1 (centres undefined) |
| 181 to 182 °C | COc1cc(Oc2ccc(C(=O)N(C3CCCCC3)C3CCCC3)cc2C)cc(OC)c1OC |
| 120 to 123 °C | Cn1c(C(=O)NCCCNC2CCCCC2)ccc1-c1nc(-c2cccc(C(F)(F)F)c2)cs1 |
| 157 to 160 °C | COCOc1cc(Cl)ccc1-c1cc(-c2cccc(NC(=O)Cn3ccnc3)c2)c(C#N)c(NC(=O)c2ccco2)n1 |
| 266 °C | Cc1ccc(-c2nc3ccccc3[nH]2)cn1 |
| 98 to 100 °C | N#Cc1cccnc1N1CCN(CC(=O)Nc2ccc(F)cc2)CC1 |
| 186 to 188 °C | O=C(O)/C=C/C=C(c1ccc(F)cc1)c1ccc(F)cc1 |
| 136 to 138 °C | CC[C@H](NC(=O)OC(C)(C)C)c1nc2c(C(F)(F)F)cccc2c(=O)o1 |
| 265 to 266 °C | Cc1ccccc1NS(=O)(=O)c1ccc(NC2=C(Cl)C(=O)c3ccccc3C2=O)cc1 |

| Structure (SMILES) | melting point |
| --- | --- |
| COc1cc2c(c(OC(=O)Cc3ccccc3)c1OC)=NC(=O)C(=O)N=2 | 298 to 300 °C |
| CC12C=CC(O)CC1=CCC1C2CCC2(C)C(=O)CCC12 (centres undefined) | 138 to 140 °C |
| COc1ccc(-c2ccco2)c2c1c(CCN(C)C)cn2C | 90 to 93 °C |
| CCN(CC)C(=O)c1ccc(C(=C2CCN(Cc3ccccc3)CC2)c2cccc(OC)c2)cc1 | 100 to 110 °C |
